The values that follow are results of earlier work, collected in patent publication US20140141213A1, “PHOTOCURABLE INK COMPOSITION, INK JET RECORDING METHOD, RECORDED MATTER, INK SET, INK CARTRIDGE, AND RECORDING APPARATUS” (Seiko Epson Corporation, priority 2009, published 2014).

The conditions of this series: primary irritation index.
For the compound `C=C(C)C(=O)OCCCCCCOC(=O)C(=C)C` [1,6-Hexanediol dimethacrylate], the P.I.I was 0.5.

On to `C=CC(=O)OCCCCCCCCCOC(=O)C=C` [1,9-Nonanediol diacrylate], for which the P.I.I is recorded as 2.0.

Turning to `C=C(C)C(=O)OCC(O)COC(=O)C(=C)C` [2-Hydroxy-1,3-dimethacryloxypropane], the P.I.I is 0.6.

Turning to `C=CC(=O)OCC1COC(C)(CC)O1` (centres unmarked) [(2-Methyl-2-ethyl-1,3-dioxolane-4-yl)methyl acrylate], the P.I.I was 1.3.

Take `C=CC(=O)OCC1COC(C)(CC(C)C)O1` (centres unmarked) [(2-Methyl-2-isobutyl-1,3-dioxolane-4-yl)methyl acrylate]: the P.I.I is recorded as 1.0.

Regarding `C=C(C)C(=O)OCCOCCOC(=O)C(=C)C` [Diethylene glycol dimethacrylate], the P.I.I is recorded as 0.5.

`C=C(C)C(=O)OCCOC(=O)C(=C)C` [Ethylene glycol dimethacrylate]: the P.I.I is given as 0.6.

On to `C=CC(=O)O[C@@H]1C[C@H]2CC[C@]1(C)C2(C)C` [Isobornyl acrylate], for which the P.I.I is recorded as 0.6.

On to `C=CC(=O)OCCOCCOC` [Methoxy diethylene glycol monoacrylate], for which the P.I.I is reported as 0.7.

Regarding `C=C(C)C(=O)OCC(C)(C)COC(=O)C(=C)C` [Neopentyl glycol dimethacrylate], the P.I.I was 0.0.

As to `C=CC(=O)OCCOc1ccccc1` [Phenoxyethyl acrylate], the P.I.I was 1.7.

Take `C=C(C)C(=O)OCCOCCOCCOCCOC(=O)C(=C)C` [Tetraethylene glycol dimethacrylate]: the P.I.I is listed as 0.5.

With `C=C(C)C(=O)OCC(CC)(COC(=O)C(=C)C)COC(=O)C(=C)C` [Trimethylolpropane trimethacrylate], the P.I.I was 0.8.

For `C=CC(=O)OCC(C)OCC(C)OCC(C)OC(=O)C=C` (centres unmarked) [Tripropylene glycol diacrylate], the P.I.I was 1.6.

Turning to Polyethylene glycol #400 diacrylate, the P.I.I is listed as 0.4.

For “Trimethylolpropane PO-modified triacrylate”, the P.I.I was 0.1.

Regarding Trimethylolpropane-modified triacrylate, the P.I.I is on record as 1.5.
